Entries after “also recorded” stand apart in the source; their conditions may differ. Where two headings read alike, the source gives them in different places. Marks after values point to notes of the source that are not given here.
How the values were obtained:
[1] = system: bleeding of severed tails of rats; experiment: Bleeding time of severed tails of rats; type: in vivo, SD rat; conditions: for Bleeding time: injection through femoral vein, tail severed 2 mins after administration, cut-off 1800 seconds
Text: Sample and control: lithospermic acid B, dipotassium lithospermate B, depside salts of Salvia miltiorrhiza (comprising 85% magnesium lithospermate B), magnesium lithospermate B, formulated with normal saline prior to use; normal saline as solvent control was from Jiangsu Yabang Pharmaceutical Co., Ltd.; the other reagents were all commercially available analytically pure products. Experimental animal: species and strain: SD rat; source: Shanghai SLAC Laboratory Animal Co., Ltd., Laboratory Animal Production License: SCXK (Shanghai) 2012-0002; number and gender: 50, male; animal weight: 120-200 g. Dosage setting: the dosages of lithospermic acid type reagents were set as 50 and 100 mg/kg in the present experiment; normal saline was given as additional solvent control. Tail severing time was 2 mins after administration. Administration route and administration dosage of sample and control: administration by injection through femoral vein, 2 ml/kg. Experimental method: the animals were water fasted overnight. 50 mg/kg pentobarbital sodium was intraperitoneally injected for anesthesia prior to the experiment. After anesthesia of the animals, markers were made at 4 mm from tips of rat tails with a marker pen and ruler. Drugs were injected through femoral veins of the animals. 2 mins later, the tails were swiftly severed at marked positions of the animal tails with a scalpel. The remained animal tails were rapidly inserted into prepared normal saline tubes in 37° C. water bath, and timing was started. The bleeding of the animal tails was observed. If no more bleeding was observed within 30 seconds, the time was recorded as coagulation time (unit: second) of the animals. […] Observation indicator and observation time: the indicator was the bleeding time. Statistical method: the experimental data was represented with x±SD; GraphPad Prism 5 1 way ANOVA was applied for significance test.

[2] = type: physicochemical; conditions: for 0 h peak area / 2 h peak area / 4 h peak area / 6 h peak area / 8 h peak area / 12 h peak area / 24 h peak area: HPLC 288 nm; for 0 h peak area: 1 mg/mL aqueous solution at 25° C. diluted 10 times, MLB of Example 1; for 2 h peak area / 4 h peak area / 6 h peak area / 8 h peak area / 12 h peak area / 24 h peak area: aqueous solution; for Average peak area: average over 0-24 h
Procedure: The chemical stability of magnesium lithospermate B was investigated by detecting the variation of peak areas (HPLC). Specific experimental method: lithospermic acid B (lab-made; lot number: 20131017) and magnesium lithospermate B prepared in Example 1 of the present invention were respectively formulated to 1 mg/mL aqueous solution at 25° C., which was then diluted 10 times. The variation of peak areas of lithospermic acid B at 288 nm for durations of 0, 2, 4, 6, 8, 12, and 24 hours were detected by HPLC, respectively. 10 microliters was injected for each time.

[3] = system: cardiac myoblast cell H9C2; type: cell-based
Text: (§1) Sample and control: magnesium lithospermate B (prepared according to Example 6 of the present application), lithospermic acid B (lab made; lot number: 20131017), formulated with normal saline prior to use; normal saline as solvent control was derived from Jiangsu Yabang Pharmaceutical Co., Ltd.; the other reagents were all commercially available analytically pure products. Cell lines and reagents: cardiac myoblast (H9C2); Microvascular Endothelial Cell (HMEC-1); Lactic Dehydrogenase Cytotoxicity Detection Kit, Beyotime Biotechnology Institute. Dosage setting: the dosages of lithospermic acid B and magnesium lithospermate B were set at 10, 50, 100, 200, 400, 800, 1200, 1600 μM and the incubation time was set as 24 hours in the present experiment. Experimental method: H9C2 cells and HMEC-1 cells were respectively incubated in 10% FBS containing low saccharide DMEM medium and MCDB-131 medium, at 37° C. and 5% CO2. Cells were seeded in a 96-well culture plate, which was added with different concentrations of lithospermic acid B solutions and magnesium lithospermate B solutions on the next day (about 80% fusion). After incubation for 24 hours in total, the detection was conducted according to instructions of the Lactic Dehydrogenase Cytotoxicity Detection Kit. Observation indicator and observation time: the observation indicator is the level of lactic dehydrogenase in cells; cell survival rate was represented by intracellular LDH content ratio, i.e. (absorbance of treated sample well−absorbance of sample control well)/(absorbance of cells with maximum enzymatic activity−absorbance of sample control well)×100. Statistical method: the data was presented with average±standard derivation (mean±SD); the comparison of two groups of data was statistically analyzed by student-t test method, P<0.05 indicating statistical difference.

endothelial cell HMEC-1 = type: cell-based
Text: as §1

[4] = system: lipid oxidation in rat liver microsome; experiment: In vitro anti-lipid peroxidation experiment (MDA, TBA method); type: biochemical, SD rat; conditions: 100 μM, 37° C. 90 mins
Text: Sample and control: magnesium lithospermate B (prepared according to Example 6 of the present application), lithospermic acid B (lab-made; lot number: 20131017), formulated with normal saline prior to use; normal saline as solvent control was from Jiangsu Yabang Pharmaceutical Co., Ltd.; the other reagents were all commercially available analytically pure products. Tris base, potassium chloride, dipotassium phosphate, glycerol, etc. (Sinopharm Chemical Reagent Co., Ltd.); Coomassie brilliant blue G-250, bovine serum albumin (Shanghai Lanji Technology Development Co., Ltd.).
Experimental animal: species and strain: SD rat; source: Shanghai SLAC Laboratory Animal Co., Ltd., Laboratory Animal Production License: SCXK (Shanghai) 2012-0002; number and gender: 2, male; animal weight: 200-250 g.
Steps for preparing liver microsome: liver tissue was taken out, cut into pieces, washed with Buffer A, wiped up, and weighed for 8 g. By adding 10 ml Buffer A per gram of tissue, 80 ml was added in total, followed by automatic homogenization and further homogenization with manual homogenizer. The homogenate was centrifuged at 10,000 g and 4° C. for 30 mins, and the supernatant was taken out. The supernatant was centrifuged at 105,000 g and 4° C. for 60 mins. The resulting precipitate is the microsome, which was then added with Buffer B to obtain microsome suspension, aliquoted into 2 ml small tubes, and stored in −70° C. refrigerator for further use. Determination of protein content: using Bradford method (Coomassie brilliant blue G-250 method).
Determination of lipid oxidation in rat liver microsome: 1 ml liver microsome was added into each tube, followed by addition of different concentrations of reagent solutions. The mixtures were well shaken and incubated in 37° C. water bath for 90 mins. After the tubes were taken out, 1 ml 10% trichloroacetic acid (TCA) and 1 ml 0.67% thiobarbituric acid (TBA) were added into each tube. The tubes were placed in boiling water bath for 15 mins, then cooled with running water and centrifuged at 3000 rpm for 10 mins. The supernatants were taken for colorimetric determination at 532 nm. The contents were calculated with standard tetraethoxypropane and represented with content per mg protein.
Calculation formula: MDA content (nmol/mg prot)={[(Asample−Ablank)÷(Astandard−Ablank)]×10 nmol/ml}÷protein content Inhibition rate %=(MDAblank−MDAsample)/MDAblank×100%

0 h peak area [2] | 2 h peak area [2] | 4 h peak area [2] | 6 h peak area [2] | 8 h peak area [2] | 12 h peak area [2] | 24 h peak area [2] | Average peak area [2] | Compound | Bleeding time ([1]; 50 mg/kg) | Bleeding time ([1]; 100 mg/kg) | Toxic effect at high dosages, in words [3] | Toxic effect at high dosages, in words (endothelial cell HMEC-1) | Inhibition rate (anti-lipid peroxidation, MDA) ([4]; n = 3) | other results
– | – | – | – | – | – | – | – | O=C(C=Cc1ccc(O)c2c1C(C(=O)OC(Cc1ccc(O)c(O)c1)C(=O)[O-])C(c1ccc(O)c(O)c1)O2)OC(Cc1ccc(O)c(O)c1)C(=O)[O-].[K+].[K+] (stereo not shown) [Dipotassium lithospermate B, dipotassium lithospermate B, reference compound] | 827 ± 70**^$$ second | 1301 ± 189**^$$ second | – | – | – | –
3957 | 3991 | 3992 | 3983 | 4002 | 3990 | 4000 | 3987.8 | O=C(/C=C/c1ccc(O)c2c1[C@H](C(=O)O[C@H](Cc1ccc(O)c(O)c1)C(=O)O)[C@@H](c1ccc(O)c(O)c1)O2)O[C@H](Cc1ccc(O)c(O)c1)C(=O)O [Lithospermic acid B, lithospermic acid B, reference compound] | 869 ± 71 s | 1078 ± 137 s | toxic effect | toxic effect | 86.42% | Inhibition rate (anti-lipid peroxidation, MDA) ([4]; n = 3, listed as lithospermic acid B): around 85%
3611 | 3632 | 3614 | 3636 | 3629 | 3628 | 3599 | 3621.3 | O=C(/C=C/c1ccc(O)c2c1[C@H](C(=O)OC(Cc1ccc(O)c(O)c1)C(=O)[O-])C(c1ccc(O)c(O)c1)O2)O[C@H](Cc1ccc(O)c(O)c1)C(=O)[O-].[Mg+2] (stereo partly shown) [Magnesium lithospermate B, magnesium lithospermate B] | 1098 ± 84 s | 1800 ± 0 s | toxic effect | toxic effect | 84.41% | Bleeding time / activity compared with the other test substances, in words ([1]; same dosage, intravenous injection): remarkably longer than lithospermic acid B administration group; also recorded: significantly longer than dipotassium lithospermate B and depside salts of Salvia miltiorrhiza; also recorded: activity superior to the free acid (lithospermic acid B), other salts (dipotassium lithospermate B), and low purity mixtures (salvianolates of Salvia miltiorrhiza); also recorded: better activities than free acid (lithospermic acid B), other salt (dipotassium lithospermate B), and low purity mixture (depside salts of Salvia miltiorrhiza); Concentrations that significantly decreased the intracellular LDH content as compared with normal control wells ([3]; rat, 24 h): 800, 1200, 1600 μM; Intracellular LDH content percent, H9C2 cell ([3]; rat, 24 h, 10 μM): 101.42 ± 2.00%; Intracellular LDH content percent, H9C2 cell ([3]; rat, 24 h, 50 μM): 99.97 ± 1.43%; Intracellular LDH content percent, H9C2 cell ([3]; rat, 24 h, 100 μM): 101.25 ± 2.79%; Intracellular LDH content percent, H9C2 cell ([3]; rat, 24 h, 200 μM): 102.39 ± 1.37%; Intracellular LDH content percent, H9C2 cell ([3]; rat, 24 h, 400 μM): 102.75 ± 3.07%; Intracellular LDH content percent, H9C2 cell ([3]; rat, 24 h, 800 μM): 37.72 ± 7.52 %; Intracellular LDH content percent, H9C2 cell ([3]; rat, 24 h, 1200 μM): 21.59 ± 2.86 %; Intracellular LDH content percent, H9C2 cell ([3]; rat, 24 h, 1600 μM): 14.59 ± 3.05 %; Concentrations that significantly decreased the intracellular LDH content as compared with normal control wells (endothelial cell HMEC-1; human, 24 h): 1200 and 1600 μM; Intracellular LDH content percent, HMEC-1 cell (endothelial cell HMEC-1; human, 24 h, 10 μM): 99.70 ± 3.88%; Intracellular LDH content percent, HMEC-1 cell (endothelial cell HMEC-1; human, 24 h, 50 μM): 101.05 ± 4.77%; Intracellular LDH content percent, HMEC-1 cell (endothelial cell HMEC-1; human, 24 h, 100 μM): 100.96 ± 4.01%; Intracellular LDH content percent, HMEC-1 cell (endothelial cell HMEC-1; human, 24 h, 200 μM): 98.58 ± 0.24%; Intracellular LDH content percent, HMEC-1 cell (endothelial cell HMEC-1; human, 24 h, 400 μM): 97.8 ± 1.03%; Intracellular LDH content percent, HMEC-1 cell (endothelial cell HMEC-1; human, 24 h, 800 μM): 96.93 ± 1.37%; Intracellular LDH content percent, HMEC-1 cell (endothelial cell HMEC-1; human, 24 h, 1200 μM): 96.17 ± 1.00 %; Intracellular LDH content percent, HMEC-1 cell (endothelial cell HMEC-1; human, 24 h, 1600 μM): 84.28 ± 3.28 %; Inhibition rate (anti-lipid peroxidation, MDA) ([4]; n = 3, listed as magnesium lithospermate B): around 85%
